The values below come from ChEMBL document CHEMBL1151023, “1,1-Dicyano-2-substituted ethylenes: A new class of glucose uptake inhibitors in antifilarial chemotherapy” (1997).

Common to all, as to format: functional
Test [1] relates to Acanthocheilonema viteae. As to the kind of experiment: Effect of compound on glucose uptake in Acanthocheilonema viteae at 10 uM concentration (p<0.05).
In test [2] the test system is Acanthocheilonema viteae. Briefly: Effect of compound on lactate produced in Acanthocheilonema viteae at 10 uM concentration (p>0.05).
In test [3] the test system is Acanthocheilonema viteae. Briefly: Effect of compound on ATP content in Acanthocheilonema viteae at 10 uM concentration (p>0.05).
In test [4] the test system is Mastomys coucha. Briefly: Tested for in vivo antifilarial activity against Acanthocheilonema viteae macrofilariae infection in Mastomys coucha at 50 mg/kgx 5 days after ip administration, expressed as % reduction in parasite load. Conditions: dose 50 mg/kg; route intraperitoneal.
In test [5] the test system is Mastomys coucha. As to the kind of experiment: Tested for in vivo antifilarial activity against Acanthocheilonema viteae microfilariae infection in Mastomys coucha at 50 mg/kgx 5 days after ip administration, expressed as % reduction in parasite load. Particulars: dose 50 mg/kg; route intraperitoneal.
Test [6] concerns Acanthocheilonema viteae. As to the kind of experiment: Effect of compound on ATP content in Acanthocheilonema viteae at 10 uM concentration (p<0.005).
Test [7] concerns Acanthocheilonema viteae. Briefly: Effect of compound on lactate produced in Acanthocheilonema viteae at 10 uM concentration(p<0.005).
Test [8] has as its system Acanthocheilonema viteae. Briefly: Effect of compound on glucose uptake in Acanthocheilonema viteae at 10 uM concentration(p<0.005).
Test [9] concerns Acanthocheilonema viteae. As to the kind of experiment: Effect of compound on glucose uptake in Acanthocheilonema viteae at 10 uM concentration (p<0.005).
For test [10], the system named is Mastomys coucha. As to the kind of experiment: Tested for in vivo antifilarial activity against Litomosoides carinii macrofilariae infection in Mastomys coucha at 30 mg/kgx 5 days after ip administration, expressed as % reduction in parasite load with 30% sterilization of female worms. Conditions: dose 30 mg/kg; route intraperitoneal.
Test [11] concerns Acanthocheilonema viteae. Briefly: Effect of compound on lactate produced in Acanthocheilonema viteae at 10 uM concentration (p<0.005).
Test [12] has as its system Mastomys coucha. As to the kind of experiment: Tested for in vivo antifilarial activity against Litomosoides carinii microfilariae infection in Mastomys coucha at 30 mg/kgx 5 days after ip administration, expressed as % reduction in parasite load with 30% sterilization of female worms. Particulars: dose 30 mg/kg; route intraperitoneal.
The subject of test [13] is Acanthocheilonema viteae. As to the kind of experiment: Effect of compound on lactate produced in Acanthocheilonema viteae at 10 uM concentration (p<0.05).
Test [14] relates to Acanthocheilonema viteae. Briefly: Effect of compound on glucose uptake in Acanthocheilonema viteae at 10 uM concentration (p>0.05).
The test system of test [15] is Mastomys coucha. As to the kind of experiment: Tested for in vivo antifilarial activity against A. viteae microfilariae infection in Mastomys coucha at 50 mg/kgx 5 days after ip administration, expressed as % reduction in parasite load. Conditions: dose 50 mg/kg; route intraperitoneal.
The test system of test [16] is Acanthocheilonema viteae. Briefly: Effect of compound on lactate produced in Acanthocheilonema viteae at 10 uM concentration(p>0.05).
For test [17], the system named is Mastomys coucha. Briefly: Tested for in vivo antifilarial activity against Litomosoides carinii macrofilariae infection in Mastomys coucha at 350 mg/kgx 5 days after ip administration, expressed as % reduction in parasite load. Conditions: dose 350 mg/kg; route intraperitoneal.
The test system of test [18] is Mastomys coucha. As to the kind of experiment: Tested for in vivo antifilarial activity against Litomosoides carinii macrofilariae infection in Mastomys coucha at 6 mg/kgx 5 days after ip administration, expressed as % reduction in parasite load. Particulars: dose 6 mg/kg; route intraperitoneal.
Test [19] deals with Mastomys coucha. Briefly: Tested for in vivo antifilarial activity against Litomosoides carinii microfilariae infection in Mastomys coucha at 6 mg/kgx 5 days after ip administration, expressed as % reduction in parasite load. Conditions: dose 6 mg/kg; route intraperitoneal.
Test [20] concerns Mastomys coucha. Briefly: Tested for in vivo antifilarial activity against Litomosoides carinii microfilariae infection in Mastomys coucha at 350 mg/kgx 5 days after ip administration, expressed as % reduction in parasite load. Conditions: dose 350 mg/kg; route intraperitoneal.

For the molecule `N#CC(C#N)=CNCCO`, the Glucose uptake in the test with Acanthocheilonema viteae [1] is 164 nM/h (mg of worm). The Lactate produced with Acanthocheilonema viteae [2] was 343 nM/h (mg of worm). Further, the ATP content with Acanthocheilonema viteae [3] was 47.8 pM (mg of protein)-1. Also, the Reduction in the test on Mastomys coucha [4] was 0%; in the test with Mastomys coucha [5] it was 82%.

Regarding `N#CC(C#N)=CNc1ccc(F)cc1`, the ATP content with Acanthocheilonema viteae [6] is on record as 16.9 pM (mg of protein)-1. Moreover, the Reduction in the test with Mastomys coucha [4] is reported as 0%; in the test on Mastomys coucha [5] it was 91%. Further, the Lactate produced in the test with Acanthocheilonema viteae [7] is 222 nM/h (mg of worm). Also, in the test on Acanthocheilonema viteae [8], the Glucose uptake is 56 nM/h (mg of worm).

For `N#CC(C#N)=CN1CCN(c2ccccn2)CC1`, the Glucose uptake in the test on Acanthocheilonema viteae [9] was 105 nM/h (mg of worm). Moreover, the Reduction in the test on Mastomys coucha [10] and with Mastomys coucha [12] was 60% throughout. Also, in the test with Acanthocheilonema viteae [11], the Lactate produced was 157 nM/h (mg of worm). In addition, in the test with Acanthocheilonema viteae [6], the ATP content is 37.1 pM (mg of protein)-1.

Regarding `N#CC(C#N)=CN1CCN(C=C(C#N)C#N)CC1`, the Glucose uptake in the test with Acanthocheilonema viteae [1] is 327 nM/h (mg of worm). Moreover, in the test on Acanthocheilonema viteae [6], the ATP content is on record as 25.7 pM (mg of protein)-1. The Reduction is given as 81% in the test on Mastomys coucha [4] and 0% in the test on Mastomys coucha [5]. The Lactate produced in the test on Acanthocheilonema viteae [13] is 258 nM/h (mg of worm).

Consider `N#CC(C#N)=CN(CCO)CCO`, for which the Glucose uptake in the test on Acanthocheilonema viteae [14] was 204 nM/h (mg of worm). Moreover, in the test with Acanthocheilonema viteae [2], the Lactate produced is 405 nM/h (mg of worm). Also, in the test with Acanthocheilonema viteae [3], the ATP content is on record as 49.3 pM (mg of protein)-1. The Reduction is on record as 0% in the test with Mastomys coucha [4] and 76% in the test on Mastomys coucha [5].

Turning to `N#CC(C#N)=CNc1ccccc1`, in the test with Acanthocheilonema viteae [14], the Glucose uptake is 189 nM/h (mg of worm). Further, the Lactate produced with Acanthocheilonema viteae [2] is 443 nM/h (mg of worm). Also, the Reduction in the test with Mastomys coucha [15] turned out to be 47%; with Mastomys coucha [4] it was 0%. In addition, the ATP content in the test on Acanthocheilonema viteae [3] is given as 53.5 pM (mg of protein)-1.

Take `CCN(CC)C(=O)N1CCN(C)CC1.O=C(O)CC(O)(CC(=O)O)C(=O)O` [DIETHYLCARBAMAZINE CITRATE]: the Glucose uptake in the test on Acanthocheilonema viteae [14] is 256 nM/h (mg of worm). Besides, in the test with Acanthocheilonema viteae [16], the Lactate produced is 461 nM/h (mg of worm). For the same molecule, the Reduction came out at 0% in the test on Mastomys coucha [17], 0% in the test with Mastomys coucha [18], 98% in the test on Mastomys coucha [19] and 90% in the test with Mastomys coucha [20]. For the same molecule, the ATP content in the test on Acanthocheilonema viteae [3] is 55.6 pM (mg of protein)-1.
